Assay results: patent US9550767B2, “Crystalline form of (R)-7-chloro-N-(quinuclidin-3-yl)benzo[b]thiophene-2-carboxamide hydrochloride monohydrate” (Forum Pharmaceuticals, Inc., priority 2010, dated 2017)
Structures can show the parent of a compound that is named as a salt. Where two headings read alike, the source gives them in different places. Blank lines part the entries; values can stand above or below the molecule they belong to.

Experiments:
Assay type in all cases: physicochemical
[1] = Stability under photo storage conditions; settings: light (D65 lamp) of 1.2 million Lux hours at 25° C.
Excerpt: (§1) The crystalline Forms I and II are very stable in many aspects. Both forms are stable under storage conditions. […] Both forms are also stable under physical stress. The XRD charts of both forms were not changed after compression experiments with a planar pestle (1000 kgf/cm^2).

[2] = Stability under storage conditions (temperature/humidity); settings: 11% RH at 40° C., 75% RH at 40° C., 11% RH at 60° C. and 75% RH at 60° C. after 2 weeks
Excerpt: as §1

[3] = Crystallization behavior in 98 v/v % aqueous acetonitrile (XRPD); settings: seeded experiments
Experimental: Form I crystals were added to 98 v/v % aqueous acetonitrile in a glass vessel. Next, 98 v/v % aqueous acetonitrile was added to make the mixture 40 v/w times relative to the Form I crystal. The mixture was stirred with Teflon-coated magnetic stirrer bar and heated to 80° C. with aluminum block. After the crystals were dissolved, the mixture was cooled to a determined temperature at the rate of 30° C. per hour. After a determined holding time, Form I crystals were added as seed crystals according to object of an experiment. Precipitates were sampled periodically and analyzed by XRPD.

Hygroscopicity (DVS-1) = settings: between 10% RH and 90% RH at 25° C.; for Hygroscopicity: hydrochloride monohydrate
Experimental: The hygroscopicity of Forms I and II were investigated using a Surface measurement systems, DVS-1, between 10% RH and 90% RH at 25° C.

[4] = Transformation behavior in 98 v/v % aqueous acetonitrile (seeded slurry, XRPD)
Experimental: Form I crystals and 40 v/w times volume of 98 v/v % aqueous acetonitrile were added to a glass vessel. The mixture was stirred with Teflon-coated magnetic stirrer bar and heated to 80° C. with aluminum block. After dissolved, solution was cooled to 5° C. at the rate of 30° C. per hour. To the slurry of Form X, 10 w/w % of Form I crystals were added as seed crystals at 5° C., then controlled to a certain temperature. Samples of solid material were analyzed by XRPD on a periodic basis.

[5] = Solubility in water (shaking 20 minutes, HPLC UV 210 nm); settings: for solubility at 20 min: thermodynamic from solid; for Solubility in water: hydrochloride monohydrate
Experimental: Excess amount of the samples, Forms I and II, were suspended in water, and were equilibrated by shaking for 20 minutes at 25° C. or 37° C., respectively. The amounts of dissolved the compound were determined using a Waters alliance HPLC system 2695, detected by UV 210 nm.

[6] = Solubility measurements of Forms I and II in aqueous acetonitrile (HPLC, equilibrium plateau); settings: for solubility: aqueous acetonitrile; for Thermodynamic relationship between forms I and II crystals: based on solubility measurements in aqueous acetonitrile
Experimental: Solubility of Forms I and II was measured at various temperatures between 5° C. and 45° C. in aqueous acetonitrile in which water concentration was from 0 to 10 v/v % respectively.
Solubility was measured according to the following procedure. Form I or II crystals and an aqueous acetonitrile were added to a glass vessel. The mixture was stirred with a Teflon-coated magnetic stirrer bar at a defined temperature controlled with aluminum block. The liquid phase was sampled periodically, and the concentration of the compound was measured with high performance liquid chromatography (HPLC). Solid material was also collected at the same time to identify the crystal form using XRPD. In analyzing the time course of the change in concentration, that plateau zone was identified as an equilibrium condition, and the mean value of these concentrations was defined as “solubility” under that condition.

[7] = Stability under physical stress (compression with planar pestle, XRD); settings: 1000 kgf/cm^2
Excerpt: as §1

[8] = Transformation behavior in 97 v/v % aqueous acetonitrile (XRPD)
Experimental: Form X crystals and 97 v/v % aqueous acetonitrile were added to a glass vessel. The mixture was stirred with Teflon-coated magnetic stirrer bar at the temperature controlled with aluminum block. Solid component was sampled periodically and analyzed by XRPD to determine the crystal form.

Degradation products under photo storage conditions [1]: no degradation products | Degradation products under storage conditions [2]: No degradation products | Hygroscopicity (Hygroscopicity (DVS-1)): no hygroscopicity | solubility at 20 min ([5]; 25 °C): 39 mg/mL | solubility at 20 min ([5]; 37 °C): 90 mg/mL | solubility ([6]; 5 °C, organic solvent or mixture, thermodynamic from solid, water concentration 0 v/v %, 5 °C, read-out: Solubility): 1 mg/mL | solubility ([6]; 5 °C, organic solvent or mixture, thermodynamic from solid, water concentration 2 v/v %, 5 °C, read-out: Solubility): 2.4 mg/mL | solubility ([6]; 5 °C, organic solvent or mixture, thermodynamic from solid, water concentration 6 v/v %, 5 °C, read-out: Solubility): 12.8 mg/mL | solubility ([6]; 12.5 °C, organic solvent or mixture, thermodynamic from solid, water concentration 3.5 v/v %, 12.5 °C, read-out: Solubility): 5.4 mg/mL | solubility ([6]; 12.5 °C, organic solvent or mixture, thermodynamic from solid, water concentration 8.5 v/v %, 12.5 °C, read-out: Solubility): 27.6 mg/mL | solubility ([6]; 25 °C, organic solvent or mixture, thermodynamic from solid, water concentration 0 v/v %, 25 °C, read-out: Solubility): 1.3 mg/mL | solubility ([6]; 25 °C, organic solvent or mixture, thermodynamic from solid, water concentration 2 v/v %, 25 °C, read-out: Solubility): 4.1 mg/mL | solubility ([6]; 25 °C, organic solvent or mixture, thermodynamic from solid, water concentration 6 v/v %, 25 °C, read-out: Solubility): 17.1 mg/mL | solubility ([6]; 25 °C, organic solvent or mixture, thermodynamic from solid, water concentration 10 v/v %, 25 °C, read-out: Solubility): 47.5 mg/mL | solubility ([6]; 37.5 °C, organic solvent or mixture, thermodynamic from solid, water concentration 3.5 v/v %, 37.5 °C, read-out: Solubility): 10 mg/mL | solubility ([6]; 37.5 °C, organic solvent or mixture, thermodynamic from solid, water concentration 8.5 v/v %, 37.5 °C, read-out: Solubility): 44.4 mg/mL | solubility ([6]; 45 °C, organic solvent or mixture, thermodynamic from solid, water concentration 2 v/v %, 45 °C, read-out: Solubility): 8.7 mg/mL | solubility ([6]; 45 °C, organic solvent or mixture, thermodynamic from solid, water concentration 6 v/v %, 45 °C, read-out: Solubility): 27.2 mg/mL | solubility ([6]; 45 °C, organic solvent or mixture, thermodynamic from solid, water concentration 10 v/v %, 45 °C, read-out: Solubility): 71.6 mg/mL | Thermodynamic relationship between forms I and II crystals [6]: enantiotropy | XRD chart after compression [7]: not changed
Structure (SMILES): O=C(N[C@H]1CN2CCC1CC2)c1cc2cccc(Cl)c2s1 [Form I, (R)-7-chloro-N-(quinuclidin-3-yl)benzo[b]thiophene-2-carboxamide hydrochloride monohydrate]
Relative stability of Form I versus Form X [3]: more stable than Form X regardless of temperature | Relative stability of Form I versus Form X [4]: more stable than Form X regardless of temperature | Relative stability of Form I versus Form X [8]: more stable than Form X regardless of temperature

Degradation products under photo storage conditions [1]: no degradation products | Degradation products under storage conditions [2]: No degradation products | Channel water absorbed and desorbed (Hygroscopicity (DVS-1)): ca. 1 mol | Water value increased and decreased by absorption and desorption (Hygroscopicity (DVS-1)): approximately 4% | Hygroscopicity (Hygroscopicity (DVS-1)): there was a hygroscopicity | Solubility in water ([5]; 25° C.): 30 mg/mL | Solubility in water ([5]; 37° C.): 54 mg/mL | solubility ([6]; 5 °C, organic solvent or mixture, thermodynamic from solid, water concentration 10 v/v %, 5 °C, read-out: Solubility): 29.7 mg/mL | solubility ([6]; water concentration 2 v/v %, 5 °C, hydrochloride monohydrate): 2.6 | solubility ([6]; water concentration 2 v/v %, 25 °C, hydrochloride monohydrate): 4.7 | solubility ([6]; water concentration 3.5 v/v %, 12.5 °C, hydrochloride monohydrate): 5.7 | solubility ([6]; water concentration 6 v/v %, 5 °C, hydrochloride monohydrate): 11.2 | solubility ([6]; water concentration 6 v/v %, 25 °C, hydrochloride monohydrate): 16.7 | solubility ([6]; water concentration 6 v/v %, 45 °C, hydrochloride monohydrate): 29.6 | solubility ([6]; water concentration 8.5 v/v %, 12.5 °C, hydrochloride monohydrate): 25.1 | solubility ([6]; water concentration 8.5 v/v %, 37.5 °C): 44.4 | solubility ([6]; water concentration 10 v/v %, 25 °C, hydrochloride monohydrate): 44.6 | solubility ([6]; water concentration 10 v/v %, 45 °C, hydrochloride monohydrate): 74.5 | Thermodynamic relationship between forms I and II crystals [6]: enantiotropy | XRD chart after compression [7]: not changed
Structure (SMILES): O=C(N[C@H]1CN2CCC1CC2)c1cc2cccc(Cl)c2s1 [Form II, (R)-7-chloro-N-(quinuclidin-3-yl)benzo[b]thiophene-2-carboxamide hydrochloride monohydrate]
